Source: patent publication EP4559908A1, “HETEROARYL DERIVATIVE COMPOUND AND USE THEREOF” (S2CBio Inc., priority 2022, dated 2024)

Target: T1, human ANO6 (variant 5) (Homo sapiens, UniProt Q4KMQ2)
T1 construct: expressed in transfected cells; host or cells: Fischer rat thyroid (FRT) cells
T1 sequence (Q4KMQ2 1-931 isoform Q4KMQ2-2): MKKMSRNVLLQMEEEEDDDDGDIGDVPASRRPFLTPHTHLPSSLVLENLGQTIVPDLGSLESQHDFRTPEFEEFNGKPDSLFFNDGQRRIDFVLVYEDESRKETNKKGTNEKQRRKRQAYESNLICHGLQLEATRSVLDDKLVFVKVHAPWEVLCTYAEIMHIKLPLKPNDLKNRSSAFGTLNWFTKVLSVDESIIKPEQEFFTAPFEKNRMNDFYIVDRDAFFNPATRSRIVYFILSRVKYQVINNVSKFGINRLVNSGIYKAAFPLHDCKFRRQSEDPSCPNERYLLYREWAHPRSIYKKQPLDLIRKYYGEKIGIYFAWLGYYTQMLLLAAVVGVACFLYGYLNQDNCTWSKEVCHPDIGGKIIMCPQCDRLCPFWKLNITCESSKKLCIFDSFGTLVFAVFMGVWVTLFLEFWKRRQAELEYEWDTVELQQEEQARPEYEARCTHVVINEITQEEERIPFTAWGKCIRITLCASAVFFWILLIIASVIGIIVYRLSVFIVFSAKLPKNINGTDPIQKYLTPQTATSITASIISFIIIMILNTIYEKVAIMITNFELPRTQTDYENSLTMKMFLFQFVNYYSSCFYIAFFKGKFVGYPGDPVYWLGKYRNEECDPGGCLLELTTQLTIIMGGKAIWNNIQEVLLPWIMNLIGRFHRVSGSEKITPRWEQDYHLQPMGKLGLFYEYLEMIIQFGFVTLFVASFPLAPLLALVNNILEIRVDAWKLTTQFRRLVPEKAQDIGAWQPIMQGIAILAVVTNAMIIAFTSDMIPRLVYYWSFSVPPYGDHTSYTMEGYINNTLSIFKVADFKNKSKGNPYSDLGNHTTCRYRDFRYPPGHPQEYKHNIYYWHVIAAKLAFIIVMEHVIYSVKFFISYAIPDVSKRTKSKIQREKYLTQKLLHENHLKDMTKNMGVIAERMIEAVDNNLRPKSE
Test: Lact C2 assay (measuring phosphatidylserine externalization scramblase function)
Format: cell-based
Details: FRT cells expressing human ANO6 (variant 5), ionomycin 10 µM, Lact-C2-GFP fluorescence, average of three tests; for inhibition at 0.05 µM / inhibition at 0.1 µM / inhibition at 1 µM: FRT; for inhibition at 0.05 µM / % Inhibition 50 nM: compound 50 nM; for inhibition at 0.05 µM: read-out: % Inhibition 50 nM; for inhibition at 1 µM: compound 1 µM, read-out: % Inhibition 1 µM
Experimental: Ionomycin (Alomonelab, cat. # I-700), DAPI (Sigma- Aldrich, cat. # D8417), paraformaldehyde (Biosesang, cat. #P2031), Lionheart FX automated fluorescence microscope (BioTek), Gen5™ software program (BioTek), and Image J analysis software program.
After the incubation, the cells were treated with compounds dissolved in DMSO to 1% v/v in each well at each concentration (50 nM, 100 nM, and 1 µM) and reacted for 10 minutes. Thereafter, each well was treated with ionomycin to a final concentration of 10 µM, allowed to react for 10 minutes, and then washed with 200 µL PBS. After washing, each well was treated with 50 µL of Lactadherin-C2 (Lact-C2)-GFP mixed in DMEM medium to a final concentration of 500 nM to stain phosphatidylserine, and cultured at 37°C for 10 minutes. After completion of the reaction, the cells were washed with 200 µL PBS, and fixed with 4% paraformaldehyde for 5 minutes at room temperature. For morphological analysis, DAPI solution was added, and the cells were incubated for 15 minutes, followed by washing with PBS. The fluorescence intensity of Lact-C2-GFP bound to phosphatidylserine on the cell surface was measured using an automated fluorescence microscope. For quantitative analysis of the fluorescence intensity of Lact-C2-GFP, BioTek Gen5™ software and Image J analysis software programs were used.
Phosphatidylserine externalization inhibitory activity (%) by the compound was calculated through the following analysis method. Specifically, the background fluorescence value was subtracted from the measured Lact-C2-GFP fluorescence value, and the fluorescence value of the ionomycin non-treatment group and the ionomycin-treatment group in the same row where each test group was located in a 96-well microplate were calculated. In order to calculate the inhibitory activity (%) by the compound, the relative inhibitory activity was calculated by setting the compound and ionomycin non-treatment group to 100% inhibitory activity and the ionomycin alone treatment group to 0% inhibitory activity.

inhibition at 0.05 µM | inhibition at 0.1 µM (compound 100 nM) | inhibition at 1 µM | % Inhibition 50 nM | % Inhibition 100 nM (compound 100 nM) | Structure (SMILES)
– | > 60% | – | B (30 to 60% inhibition) | – | Fc1ccc2nc(-c3cccc(Nc4ncc(-c5cccnn5)cn4)c3)[nH]c2c1 [Example 51, N-(3-(6-fluoro-1H-benzo[d]imidazol-2-yl)phenyl)-5-(pyridazin-3-yl)pyrimidin-2-amine]
> 60% | > 60% | – | – | – | FC(F)(F)c1ccc2nc(-c3cccc(Nc4ncc(-c5cccnn5)cn4)c3)[nH]c2c1 [Example 52, 5-(pyridazin-3-yl)-N-(3-(6-(trifluoromethyl)-1H-benzo[d]imidazol-2-yl)phenyl)pyrimidin-2-amine]
30 to 60% | 30 to 60% | – | – | – | c1cc(Nc2ncc(-c3cccnn3)cn2)cc(-c2nc3ccccc3[nH]2)c1 [Example 53, N-[3-(1H-benzo[d]imidazol-2-yl)phenyl]-5-(pyridazin-3-yl)pyrimidin-2-amine]
– | – | – | A (> 60% inhibition) | A (> 60% inhibition) | Fc1ccc2nc(-c3cccc(Nc4ncc(-c5cccnn5)cn4)c3)[nH]c2c1 [Example 55, N-(3-(6-fluoro-1H-benzo[d]imidazol-2-yl)phenyl)-5-(pyridazin-3-yl)pyrimidin-2-amine]
30 to 60% | > 60% | – | – | – | c1cc(Nc2ccc(-c3cccnn3)cn2)cc(-c2nc3ccccc3[nH]2)c1 [Example 56, N-[3-(1H-benzo[d]imidazol-2-yl)phenyl]-5-(pyridazin-3-yl)pyridin-2-amine]
> 60% | > 60% | – | – | – | FC(F)(F)c1ccc2nc(-c3cccc(Nc4ccc(-c5ccccn5)cn4)c3)[nH]c2c1 [Example 57, N-{3-[6-(trifluoromethyl)-1H-benzo[d]imidazol-2-yl]phenyl}-[2,3'-bipyridin]-6'-amine]
> 60% | > 60% | – | – | – | Fc1ccc2nc(-c3cccc(Nc4ccc(-c5ccccn5)cn4)c3)[nH]c2c1 [Example 58, N-(3-(6-fluoro-1H-benzo[d]imidazol-2-yl)phenyl)-[2,3'-bipyridine]-6'-amine]
> 60% | > 60% | – | – | – | c1ccc(-c2ccc(Nc3cccc(-c4nc5ccccc5[nH]4)c3)nc2)nc1 [Example 59, N-[3-(1H-benzo[d]imidazol-2-yl)phenyl]-[2,3'-bipyridin]-6'-amine]
> 60% | > 60% | – | – | – | COC(=O)c1ccc2nc(-c3cccc(Nc4ccc(-c5cccnn5)cc4)c3)[nH]c2c1 [Example 61, methyl 2-(3-((4-(pyridazin-3-yl)phenyl)amino)phenyl)-1H-benzo[d]imidazol-6-carboxylate]
> 60% | > 60% | – | – | – | FC(F)(F)c1ccc2nc(-c3cccc(Nc4ncc(-c5ncccn5)cn4)c3)[nH]c2c1 [Example 63, N-{3-[6-(trifluoromethyl)-1H-benzo[d]imidazol-2-yl]phenyl}-[2,5'-bipyrimidin]-2'-amine]
30 to 60% | 30 to 60% | – | – | – | Clc1cc2[nH]c(-c3cccc(Nc4ncc(-c5ccccn5)cn4)c3)nc2cn1 [Example 64, N-(3-(6-chloro-1H-imidazolo[4,5-c]pyridin-2-yl)phenyl)-5-(pyridin-2-yl)pyrimidin-2-amine]
> 60% | > 60% | – | – | – | c1cc(Nc2ccc(-c3ccncn3)cn2)cc(-c2nc3ccccc3[nH]2)c1 [Example 68, N-[3-(1H-benzo[d]imidazol-2-yl)phenyl]-5-(pyrimidin-4-yl)pyridin-2-amine]
– | 30 to 60% | – | – | – | c1cnc(-c2ccc(Nc3cccc(-c4nc5ccccc5[nH]4)c3)nc2)nc1 [Example 69, N-(3-(lH-benzo[d]imidazol-2-yl)phenyl)-5-(pyrimidin-2-yl)pyridin-2-amine]
> 60% | > 60% | – | – | – | Fc1ccc2nc(-c3cccc(Nc4ccc(-c5ccncn5)cn4)c3)[nH]c2c1 [Example 72, N-(3-(6-fluoro-1H-benzo[d]imidazol-2-yl)phenyl)-5-(pyrimidin-4-yl)pyridin-2-amine]

The next lines start with the compound.

Structure (SMILES) | inhibition at 0.05 µM | inhibition at 0.1 µM (compound 100 nM) | inhibition at 1 µM | % Inhibition 50 nM | % Inhibition 100 nM (compound 100 nM)
c1cnc(-c2ccc(Nc3cccc(-c4nc5ccccc5[nH]4)c3)cc2)nc1 [Example 26, N-[3-(1H-benzo[d]imidazol-2-yl)phenyl]-4-(pyrimidin-2-yl)aniline] | > 60% | > 60% | > 60% | – | –
FC(F)(F)c1ccc2nc(-c3cccc(Nc4ccc(-c5ncccn5)cc4)c3)[nH]c2c1 [Example 27, N-[4-(pyrimidin-2-yl)phenyl]-3-[6-(trifluoromethyl)-1H-benzo[d]imidazol-2-yl]aniline] | > 60% | > 60% | > 60% | – | –
FC(F)(F)c1ccc2nc(-c3cccc(Nc4ccc(-c5cncnc5)cc4)c3)[nH]c2c1 [Example 28, N-[4-(pyrimidin-5-yl)phenyl]-3-[6-(trifluoromethyl)-1H-benzo[d]imidazol-2-yl]aniline] | > 60% | > 60% | – | – | –
FC(F)(F)c1ccc2nc(-c3cccc(Nc4ccc(-c5cnccn5)cc4)c3)[nH]c2c1 [Example 29, N-[4-(pyrazin-2-yl)phenyl]-3-[6-(trifluoromethyl)-1H-benzo[d]imidazol-2-yl]aniline] | > 60% | > 60% | – | – | –
c1cc(Nc2ccc(-c3cncnc3)cc2)cc(-c2nc3ccccc3[nH]2)c1 [Example 30, 3-(1H-benzo[d]imidazol-2-yl)-N-(4-(pyrimidin-5-yl)phenyl)aniline] | 30 to 60% | 30 to 60% | – | – | –
c1cncc(-c2ccc(Nc3cccc(-c4nc5ccccc5[nH]4)c3)cc2)c1 [Example 31, N-[3-(1H-benzo[d]imidazol-2-yl)phenyl]-4-(pyridin-3-yl)aniline] | 30 to 60% | > 60% | – | – | –
c1cc(Nc2ccc(-c3cnccn3)cc2)cc(-c2nc3ccccc3[nH]2)c1 [Example 32, 3-(1H-benzo[d]imidazol-2-yl)-N-(4-(pyrazin-2-yl)phenyl)aniline] | 30 to 60% | 30 to 60% | – | – | –
c1cc(Nc2ccc(-c3ccncc3)cc2)cc(-c2nc3ccccc3[nH]2)c1 [Example 33, N-[3-(1H-benzo[d]imidazol-2-yl)phenyl]-4-(pyridin-4-yl)aniline] | 30 to 60% | 30 to 60% | – | – | –
Cc1cscc1-c1cnc(Nc2cccc(-c3nc4ccccc4[nH]3)c2)nc1 [Example 43, N-(3-(1H-benzo[d]imidazol-2-yl)phenyl)-5-(4-methylthiophen-3-yl)pyrimidin-2-amine] | > 60% | > 60% | – | – | –
c1ccc(-c2cnc(Nc3cccc(-c4nc5ccccc5[nH]4)c3)nc2)nc1 [Example 44, N-(3-(1H-benzo[d]imidazol-2-yl)phenyl)-5-(pyridin-2-yl)pyrimidin-2-amine] | > 60% | > 60% | – | – | –
Fc1ccc2nc(-c3cccc(Nc4ncc(-c5ccccn5)cn4)c3)[nH]c2c1 [Example 45, N-[3-(6-fluoro-1H-benzo[d]imidazol-2-yl)phenyl]-5-(pyridin-2-yl)pyrimidin-2-amine] | > 60% | > 60% | – | – | –
